Assay results from PubChem BioAssay (NCI).
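Following 48 hours of exposure in 96-well plates, responses at five concentrations were used to interpolate endpoints linearly. GI50: concentration for 50% inhibition of growth. TGI: total growth inhibition.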

The molecules below were run on COLO 205 colon (assay: growth of human tumour cells (NCI), 48 h).

SMILES	GI50	TGI
O=[N+]([O-])c1ccc(C=C2C(Cl)=C(Cl)C(Cl)=C2Cl)cc1	3.2 µM	> 100 µM
COc1ccccc1C1C(C(=O)O)=C(CO)Oc2cc3c(cc21)OCO3 (stereo not given)		> 100 µM
Cc1ccc2c(n1)C(=O)c1[nH]c3ccccc3c1C2=O	1.89 µM	4.14 µM
O=C(OC(=O)n1ccc2ccccc21)n1ccc2ccccc21		> 100 µM
C=CC(Br)(CBr)CCC(Cl)C(C)C (stereo not given)		10.2 µM
Cc1nc(N)sc1-c1ccnc(Nc2ccc(N3CCOCC3)cc2)n1	0.488 µM	> 100 µM
CC(=O)Oc1cccc2c(/C=N/NC(N)=S)ncc(C)c12		> 41 µM
CC(=O)OC1CCC2(C)C3CCC4(C)C(c5ccc(=O)oc5)CC5OC54C3CCC2(O)C1 (stereo not given)		10.3 µM
Cc1cc(=O)[nH]c(NN2C(Cl)C(=O)C2c2cccc(O)c2)n1 (stereo not given)		> 100 µM
Cc1ccc(S(=O)(=O)Oc2cc(-c3ccccc3)nc3ccccc23)cc1		1.18 µM
NNC(N)Nc1ccccc1 (stereo not given)		> 100 µM
CC1CC=CC(O)C1 (stereo not given)		> 100 µM
c1ccc(N=C2SC(=NC3CCCCC3)N(C3CCCCC3)C2=Nc2ccccc2)cc1		> 100 µM
O=NN(CCCl)C(=O)NC1CCSc2ccccc21 (stereo not given)		> 100 µM

The molecules below were run on HCC-2998 colon (assay: growth of human tumour cells (NCI), 48 h).

SMILES	GI50	TGI
Cc1ccc2c(n1)C(=O)c1[nH]c3ccccc3c1C2=O	1.88 µM	6.37 µM
O=C(OC(=O)n1ccc2ccccc21)n1ccc2ccccc21		> 100 µM
C=CC(Br)(CBr)CCC(Cl)C(C)C (stereo not given)		1.52 µM
Cc1nc(N)sc1-c1ccnc(Nc2ccc(N3CCOCC3)cc2)n1	11.8 µM	> 100 µM
CC(=O)Oc1cccc2c(/C=N/NC(N)=S)ncc(C)c12		18.9 µM
CC(=O)OC1CCC2(C)C3CCC4(C)C(c5ccc(=O)oc5)CC5OC54C3CCC2(O)C1 (stereo not given)		14 µM
Cc1cc(=O)[nH]c(NN2C(Cl)C(=O)C2c2cccc(O)c2)n1 (stereo not given)		> 100 µM
Cc1ccc(S(=O)(=O)Oc2cc(-c3ccccc3)nc3ccccc23)cc1		4.49 µM
NNC(N)Nc1ccccc1 (stereo not given)		> 100 µM
CC1CC=CC(O)C1 (stereo not given)		> 100 µM
c1ccc(N=C2SC(=NC3CCCCC3)N(C3CCCCC3)C2=Nc2ccccc2)cc1		> 100 µM
O=NN(CCCl)C(=O)NC1CCSc2ccccc21 (stereo not given)		> 100 µM

Each molecule was assayed on HCT-15 colon (assay: growth of human tumour cells (NCI), 48 h).

SMILES	GI50	TGI
O=[N+]([O-])c1ccc(C=C2C(Cl)=C(Cl)C(Cl)=C2Cl)cc1	3.17 µM	> 100 µM
COc1ccccc1C1C(C(=O)O)=C(CO)Oc2cc3c(cc21)OCO3 (stereo not given)		> 100 µM
O=C(OC(=O)n1ccc2ccccc21)n1ccc2ccccc21		> 100 µM
Cc1nc(N)sc1-c1ccnc(Nc2ccc(N3CCOCC3)cc2)n1	0.991 µM	> 100 µM
CC(=O)Oc1cccc2c(/C=N/NC(N)=S)ncc(C)c12		24.1 µM
CC(=O)OC1CCC2(C)C3CCC4(C)C(c5ccc(=O)oc5)CC5OC54C3CCC2(O)C1 (stereo not given)		14.6 µM
Cc1cc(=O)[nH]c(NN2C(Cl)C(=O)C2c2cccc(O)c2)n1 (stereo not given)		> 100 µM
Cc1ccc(S(=O)(=O)Oc2cc(-c3ccccc3)nc3ccccc23)cc1		> 40.3 µM
NNC(N)Nc1ccccc1 (stereo not given)		> 100 µM
CC1CC=CC(O)C1 (stereo not given)		> 100 µM
c1ccc(N=C2SC(=NC3CCCCC3)N(C3CCCCC3)C2=Nc2ccccc2)cc1		> 100 µM
O=NN(CCCl)C(=O)NC1CCSc2ccccc21 (stereo not given)		> 100 µM

What follows are molecules tested on HT29 colon (assay: growth of human tumour cells (NCI), 48 h).

SMILES	GI50	TGI
O=[N+]([O-])c1ccc(C=C2C(Cl)=C(Cl)C(Cl)=C2Cl)cc1	2.64 µM	7.14 µM
COc1ccccc1C1C(C(=O)O)=C(CO)Oc2cc3c(cc21)OCO3 (stereo not given)		> 100 µM
Cc1ccc2c(n1)C(=O)c1[nH]c3ccccc3c1C2=O	3.05 µM	> 100 µM
O=C(OC(=O)n1ccc2ccccc21)n1ccc2ccccc21		> 100 µM
C=CC(Br)(CBr)CCC(Cl)C(C)C (stereo not given)		3.17 µM
Cc1nc(N)sc1-c1ccnc(Nc2ccc(N3CCOCC3)cc2)n1	2.11 µM	> 100 µM
CC(=O)Oc1cccc2c(/C=N/NC(N)=S)ncc(C)c12		21.8 µM
CC(=O)OC1CCC2(C)C3CCC4(C)C(c5ccc(=O)oc5)CC5OC54C3CCC2(O)C1 (stereo not given)		16.1 µM
Cc1cc(=O)[nH]c(NN2C(Cl)C(=O)C2c2cccc(O)c2)n1 (stereo not given)		> 100 µM
Cc1ccc(S(=O)(=O)Oc2cc(-c3ccccc3)nc3ccccc23)cc1		7.54 µM
NNC(N)Nc1ccccc1 (stereo not given)		> 100 µM
CC1CC=CC(O)C1 (stereo not given)		> 100 µM
c1ccc(N=C2SC(=NC3CCCCC3)N(C3CCCCC3)C2=Nc2ccccc2)cc1		> 100 µM
O=NN(CCCl)C(=O)NC1CCSc2ccccc21 (stereo not given)		> 100 µM

The molecules below were run on KM12 colon (assay: growth of human tumour cells (NCI), 48 h).

SMILES	GI50	TGI
Cc1ccc2c(n1)C(=O)c1[nH]c3ccccc3c1C2=O	3.1 µM	19.6 µM
O=C(OC(=O)n1ccc2ccccc21)n1ccc2ccccc21		> 100 µM
C=CC(Br)(CBr)CCC(Cl)C(C)C (stereo not given)		2.95 µM
Cc1nc(N)sc1-c1ccnc(Nc2ccc(N3CCOCC3)cc2)n1	1.59 µM	> 100 µM
CC(=O)Oc1cccc2c(/C=N/NC(N)=S)ncc(C)c12		15.5 µM
CC(=O)OC1CCC2(C)C3CCC4(C)C(c5ccc(=O)oc5)CC5OC54C3CCC2(O)C1 (stereo not given)		10.7 µM
Cc1cc(=O)[nH]c(NN2C(Cl)C(=O)C2c2cccc(O)c2)n1 (stereo not given)		> 100 µM
Cc1ccc(S(=O)(=O)Oc2cc(-c3ccccc3)nc3ccccc23)cc1		> 43.5 µM
NNC(N)Nc1ccccc1 (stereo not given)		> 100 µM
CC1CC=CC(O)C1 (stereo not given)		> 100 µM
c1ccc(N=C2SC(=NC3CCCCC3)N(C3CCCCC3)C2=Nc2ccccc2)cc1		> 100 µM
O=NN(CCCl)C(=O)NC1CCSc2ccccc21 (stereo not given)		> 100 µM

The molecules below were run on MCF7 breast (assay: growth of human tumour cells (NCI), 48 h).

SMILES	GI50	TGI
O=[N+]([O-])c1ccc(C=C2C(Cl)=C(Cl)C(Cl)=C2Cl)cc1	2.78 µM	10.9 µM
Cc1ccc2c(n1)C(=O)c1[nH]c3ccccc3c1C2=O	0.586 µM	2.63 µM
O=C(OC(=O)n1ccc2ccccc21)n1ccc2ccccc21		> 100 µM
C=CC(Br)(CBr)CCC(Cl)C(C)C (stereo not given)		3.07 µM
Cc1nc(N)sc1-c1ccnc(Nc2ccc(N3CCOCC3)cc2)n1	1.43 µM	> 100 µM
CC(=O)Oc1cccc2c(/C=N/NC(N)=S)ncc(C)c12		3.32 µM
CC(=O)OC1CCC2(C)C3CCC4(C)C(c5ccc(=O)oc5)CC5OC54C3CCC2(O)C1 (stereo not given)		14.8 µM
Cc1ccc(S(=O)(=O)Oc2cc(-c3ccccc3)nc3ccccc23)cc1		> 48.4 µM
NNC(N)Nc1ccccc1 (stereo not given)		> 100 µM
CC1CC=CC(O)C1 (stereo not given)		> 100 µM
c1ccc(N=C2SC(=NC3CCCCC3)N(C3CCCCC3)C2=Nc2ccccc2)cc1		> 100 µM
O=NN(CCCl)C(=O)NC1CCSc2ccccc21 (stereo not given)		> 100 µM

The molecules below were run on NCI-H460 lung (assay: growth of human tumour cells (NCI), 48 h).

SMILES	GI50	TGI
O=[N+]([O-])c1ccc(C=C2C(Cl)=C(Cl)C(Cl)=C2Cl)cc1	3.62 µM	> 100 µM
COc1ccccc1C1C(C(=O)O)=C(CO)Oc2cc3c(cc21)OCO3 (stereo not given)		> 100 µM
Cc1ccc2c(n1)C(=O)c1[nH]c3ccccc3c1C2=O	0.337 µM	1.63 µM
O=C(OC(=O)n1ccc2ccccc21)n1ccc2ccccc21		> 100 µM
C=CC(Br)(CBr)CCC(Cl)C(C)C (stereo not given)		4.3 µM
Cc1nc(N)sc1-c1ccnc(Nc2ccc(N3CCOCC3)cc2)n1	0.495 µM	> 43.9 µM
CC(=O)Oc1cccc2c(/C=N/NC(N)=S)ncc(C)c12		7.81 µM
CC(=O)OC1CCC2(C)C3CCC4(C)C(c5ccc(=O)oc5)CC5OC54C3CCC2(O)C1 (stereo not given)		1.75 µM
Cc1cc(=O)[nH]c(NN2C(Cl)C(=O)C2c2cccc(O)c2)n1 (stereo not given)		> 100 µM
Cc1ccc(S(=O)(=O)Oc2cc(-c3ccccc3)nc3ccccc23)cc1		13.7 µM
NNC(N)Nc1ccccc1 (stereo not given)		> 100 µM
CC1CC=CC(O)C1 (stereo not given)		> 100 µM
c1ccc(N=C2SC(=NC3CCCCC3)N(C3CCCCC3)C2=Nc2ccccc2)cc1		> 100 µM
O=NN(CCCl)C(=O)NC1CCSc2ccccc21 (stereo not given)		> 100 µM

The molecules below were run on SF-539 CNS (assay: growth of human tumour cells (NCI), 48 h).

SMILES	GI50	TGI
O=[N+]([O-])c1ccc(C=C2C(Cl)=C(Cl)C(Cl)=C2Cl)cc1	2.54 µM	7.09 µM
COc1ccccc1C1C(C(=O)O)=C(CO)Oc2cc3c(cc21)OCO3 (stereo not given)		> 100 µM
Cc1ccc2c(n1)C(=O)c1[nH]c3ccccc3c1C2=O	2.15 µM	5.11 µM
O=C(OC(=O)n1ccc2ccccc21)n1ccc2ccccc21		> 100 µM
C=CC(Br)(CBr)CCC(Cl)C(C)C (stereo not given)		3.84 µM
CC(=O)Oc1cccc2c(/C=N/NC(N)=S)ncc(C)c12		1.98 µM
CC(=O)OC1CCC2(C)C3CCC4(C)C(c5ccc(=O)oc5)CC5OC54C3CCC2(O)C1 (stereo not given)		2.78 µM
Cc1cc(=O)[nH]c(NN2C(Cl)C(=O)C2c2cccc(O)c2)n1 (stereo not given)		31.6 µM
Cc1ccc(S(=O)(=O)Oc2cc(-c3ccccc3)nc3ccccc23)cc1		4.87 µM
NNC(N)Nc1ccccc1 (stereo not given)		> 100 µM
CC1CC=CC(O)C1 (stereo not given)		> 100 µM
O=NN(CCCl)C(=O)NC1CCSc2ccccc21 (stereo not given)		> 74.5 µM

Each molecule was assayed on SK-MEL-5 melanoma (assay: growth of human tumour cells (NCI), 48 h).

SMILES	GI50	TGI
O=[N+]([O-])c1ccc(C=C2C(Cl)=C(Cl)C(Cl)=C2Cl)cc1	21.8 µM	> 100 µM
COc1ccccc1C1C(C(=O)O)=C(CO)Oc2cc3c(cc21)OCO3 (stereo not given)		> 100 µM
Cc1ccc2c(n1)C(=O)c1[nH]c3ccccc3c1C2=O	0.212 µM	0.583 µM
O=C(OC(=O)n1ccc2ccccc21)n1ccc2ccccc21		> 100 µM
C=CC(Br)(CBr)CCC(Cl)C(C)C (stereo not given)		3.91 µM
Cc1nc(N)sc1-c1ccnc(Nc2ccc(N3CCOCC3)cc2)n1	5.05 µM	> 100 µM
CC(=O)Oc1cccc2c(/C=N/NC(N)=S)ncc(C)c12		16.4 µM
CC(=O)OC1CCC2(C)C3CCC4(C)C(c5ccc(=O)oc5)CC5OC54C3CCC2(O)C1 (stereo not given)		4.76 µM
Cc1cc(=O)[nH]c(NN2C(Cl)C(=O)C2c2cccc(O)c2)n1 (stereo not given)		> 100 µM
Cc1ccc(S(=O)(=O)Oc2cc(-c3ccccc3)nc3ccccc23)cc1		21.3 µM
NNC(N)Nc1ccccc1 (stereo not given)		> 100 µM
CC1CC=CC(O)C1 (stereo not given)		> 100 µM
c1ccc(N=C2SC(=NC3CCCCC3)N(C3CCCCC3)C2=Nc2ccccc2)cc1		> 100 µM
O=NN(CCCl)C(=O)NC1CCSc2ccccc21 (stereo not given)		> 100 µM

Each molecule was assayed on SK-OV-3 ovarian (assay: growth of human tumour cells (NCI), 48 h).

SMILES	GI50	TGI
O=[N+]([O-])c1ccc(C=C2C(Cl)=C(Cl)C(Cl)=C2Cl)cc1	12.1 µM	29.9 µM
COc1ccccc1C1C(C(=O)O)=C(CO)Oc2cc3c(cc21)OCO3 (stereo not given)		> 100 µM
Cc1ccc2c(n1)C(=O)c1[nH]c3ccccc3c1C2=O	4.95 µM	> 100 µM
O=C(OC(=O)n1ccc2ccccc21)n1ccc2ccccc21		> 100 µM
C=CC(Br)(CBr)CCC(Cl)C(C)C (stereo not given)		18.6 µM
Cc1nc(N)sc1-c1ccnc(Nc2ccc(N3CCOCC3)cc2)n1	2.62 µM	> 100 µM
CC(=O)Oc1cccc2c(/C=N/NC(N)=S)ncc(C)c12		17.1 µM
CC(=O)OC1CCC2(C)C3CCC4(C)C(c5ccc(=O)oc5)CC5OC54C3CCC2(O)C1 (stereo not given)		10.2 µM
Cc1ccc(S(=O)(=O)Oc2cc(-c3ccccc3)nc3ccccc23)cc1		5.23 µM
NNC(N)Nc1ccccc1 (stereo not given)		> 100 µM
CC1CC=CC(O)C1 (stereo not given)		> 100 µM
c1ccc(N=C2SC(=NC3CCCCC3)N(C3CCCCC3)C2=Nc2ccccc2)cc1		> 100 µM
O=NN(CCCl)C(=O)NC1CCSc2ccccc21 (stereo not given)		> 100 µM
